One test has as its system T cell proliferation. Kind of test: Allogenic mixed lymphocyte reaction with keratinocyte culture medium. The class given is cell-based, human. To be noted: >10 kD components of culture medium from 72 hour sample. The procedure: The immunomodulatory effect of pTpT was tested in vitro using human keratinocytes. Duplicate cultures of primary human keratinocytes were treated with pTpT, diluent or UVB irradiation (200 J/m^2) or sham irradiation. Cells were collected at various times after treatment and analyzed for IL-10 protein by ELISA and for IL-10 mRNA by RT-PCR. An increase in IL-10 mRNA was detected after 6 hours in irradiated cells and after 48 hours in pTpT treated cells. An increase in IL-10 protein of 18 pg/ml was detected 24 hours after irradiation and 15±2 pg/ml 72 hours after treatment with pTpT. […] In the allogenic MLR, T cell activation is measured as lymphocyte proliferation, measured by ^3H-thymidine incorporation. IL-10 activity of culture medium from the 72 hour pTpT sample was measured by addition of the >10 kD components (containing the 18 kD IL-10 protein). […] Thus, like UVB irradiation, pTpT induces IL-10 in human keratinocytes which is likely to cooperate with TNFα to inhibit contact hypersensitivity in pTpT treated skin.

For test [1], the system named is BP DNA adducts (CAT reporter plasmid) in human keratinocytes. Description: Repair of BP-damaged CAT reporter plasmid in keratinocytes. To be noted: 100 μM 48 hours; ~25 or ~50 adducts/plasmid. The class given is cell-based. Here is the method:
The pCAT vector (Promega) was treated with benzo[a]pyrene-7,8-diol-9,10-epoxide (BP) as described (Athas et al. Cancer Res 1991) to produce less damaged and more damaged plasmids, previously shown to be instructive in studies examining different repair capacities in human cells. Based on the incorporation of ^3H-BPDE into the DNA, the less damaged plasmid contained 25 adducts per 5 kb plasmid and the more damaged plasmid contained 50 adducts. This non-replicating vector contains the chloramphenicol acetyltransferase gene under control of SV40 promoter and enhancer sequences. […] CAT enzyme activity was determined using the liquid scintillation counting protocol and components of the assay system kit (Promega). ^14C-labeled chloramphenicol[50–60 mCi(1.85–2.22 GBq)/mmol] was purchased from New England Nuclear (Boston, Mass.). […]
To measure the repair of BP DNA adducts, non-replicating BP-damaged reporter plasmid system containing the bacterial chloramphenicol acetyltransferase (CAT) gene was used as described in Example 8. With first passage human keratinocytes, the transfection efficiency, as measured by the cotransfected β-galactosidase expression vector, was 40–70%.

For test [2], the system named is UV-damaged CAT reporter plasmid in human fibroblasts. Description: Repair of UV-damaged CAT reporter plasmid in fibroblasts. In kind it is cell-based. As to conditions: 100 μM for five days before transfection; plasmid 100 mJ/cm^2 UVB. From the text:
Expression of a UV-damaged reporter plasmid containing the bacterial chloramphenicol acetyltransferase (CAT) gene under the control of SV40 promoter and enhancer sequences was previously shown to detect decreased DNA repair capacity in human lymphocytes associated with aging and early-onset skin cancers. This reporter plasmid was used to measure the DNA repair capacity of normal neonatal human skin-derived fibroblasts and keratinocytes.
Keratinocytes from newborns were established as described (Stanulis-Praeger, B. M. and Gilchrest, B. A., J. Cell. Physiol. 139:116–124 (1989)) using a modification of the method of Rheinwald and Green (Gilchrest, B. A. et al., J. Invest. Dermatol. 101:666–672 (1993)). First-passage keratinocytes were maintained in a non-differentiating low Ca^2+ medium (K-Stim, Collaborative Biomedical Products, Bedford, Mass.). […] CAT enzyme activity was determined using the liquid scintillation counting protocol and components of the assay system kit. […] Protein concentration in the cell extracts was determined by the method of Bradford (Anal. Biochem. 72:248 […]). CAT activity was expressed as c.p.m./100 μg protein and is represented as percent activity of cells transfected with sham-irradiated, non-damaged, plasmid.

Test [3] deals with p53, PCNA and the XPA protein. Kind of test: Western blot of DNA repair proteins in keratinocytes. In kind it is cell-based, human. To be noted: within 2 days of treatment. Here is the method: Cells were treated with 100 μM pTpT or an equal volume of diluent alone for 48 hours. Total cellular proteins were collected in a buffer consisting of 0.25 M Tris HCl (pH 7.5), 0.375 M NaCl, 2.5% sodium deoxycholate, 1% Triton X-100, 25 mM MgCl2, 1 mM phenylmethyl sulfonyl fluoride, and 0.1 mg ml aprotinin. Proteins (100 μg per sample) were separated by 7.5–15% SDS-PAGE and transferred to a nitrocellulose membrane (Schleicher & Schuell, Keene, N. H.). After transfer, the gel was stained with Coomassie Blue to verify even loading as visualized by the residual high molecular weight proteins. Membranes were blocked in 0.05% Tween-20/PBS with 5% milk, (Bio-Rad Laboratories, Hercules, Calif.). Antibody reactions were performed with the following antibodies: anti p53 (AB-6), anti PCNA (Ab-2) (Oncogene Science), and anti XPA (FL-273) (Santa Cruz Biotechnology). Sheep anti-mouse Ig linked to horseradish peroxidase (Amersham, Arlington Heights, Ill.) (for p53 and PCNA) and goat anti-rabbit IgG (Bio-Rad)(for XPA) were used as the secondary antibodies. Binding was detected by the ECL detection kit (Amersham).
Western blot analysis was used to examine the effect of pTpT treatment on the expression of selected genes known to be involved in DNA repair.

With thymidine dinucleotide [pTpT], in the test with T cell proliferation, the “reduction in T cell proliferation” value was found to be 80±5%. In test [1], the “CAT expression relative to undamaged control vector, compared to diluent” value is “approximate doubling of CAT expression”. Besides, the “CAT activity relative to sham-irradiated transfected controls” value in test [2] is “more than 50%”. Besides, in test [3], the “up-regulation of levels of p53, PCNA and XPA protein” value is 2 to 3 fold.

Values taken from patent publication US7033829B2, “Method to inhibit cell growth using oligonucleotides” (Trustees of Boston University, priority 2000, dated 2006).
